Tests used:
SSC90 = conditions: human
intracellular GSH = assay: Total GSH assay, SKOV3 cells; format: cell-based, human; conditions: SKOV3, 0.5 μM, 12 hr
Protocol: Luciferase and GSH assays: Sub-confluent cultures of cells were transfected with 4Ub-FL or FL plasmid using Lipofectamine 2000 reagent (Life Technologies). Cells were seeded at 10,000 cells/well in 96-wells plate 48 hr post transfection and incubated with compounds or vehicle (DMSO) at the doses and times indicated. Luciferase activity in cell lysate was determined with a luciferase assay kit (Promega) according to the manufacturer's instructions. Bioluminescence was measured by using a Glomax Multidetection system (Promega). Glutathione was assayed using the Promega GSH assay kit (V6611).

NF-κB = conditions: 293T cells stably expressing NFkB-Luc reporter; previously observed (13); read-out: IC50 of NF-κB signaling inhibition; cited from earlier work
C2KmFvB1 = assay: MTT cytotoxicity assay, C2KmFvB1; conditions: read-out: cytotoxicity IC50 C2KmFvB1, Tables 3A/4B/4C, BRCA2 + Ve
SKOV3 cells = assay: XTT cytotoxicity assay, SKOV3; format: cell-based, human; conditions: Homo sapiens, SK-OV-3; Table 1; XTT assay; read-out: IC50 SKOV3
From the text: The impact of substituents of the aromatic ring on the potency of molecules was also examined. The presence of either an electron withdrawing group (EWG) or an electron donating group (EDG) influences the reactivity of a Michael acceptor towards the target protein but can also impact specificity/selectivity.

[1] = tested on: proteasome (4UbFL reporter); assay: 4UbFL reporter in leg muscle of BALB/c mice; format: in vivo; conditions: single i.p. administration to mice
Protocol: FIG. 9B illustrates BALB/c mice electroporated with 4UbFL plasmid (10 μg/mouse) in the leg muscle and the basal luminescence was recorded after 48 hr. Groups of mice (n=5) were treated with different compound (40 mg/Kg) or vehicle alone (25% (w/v) β-Hydroxypropylcyclodextrin in water). Mice were imaged for bioluminiscence activity using IVIS instrument at 4, 24, 48, 72 and 96 hr.
To test for proteasome inhibition by RA375 in vivo, an electroporation delivery was employed to transfect the leg muscle of mice with the 4UbFL reporter plasmid. […] At two days post electroporation of the 4UbFL DNA, mice were imaged, and base line luminescence recorded. […] After 4 h, 24 h, 48 h, 72 h and 96 h post treatment mice were again imaged, and bioluminescence was quantified.
Electroporation Method: A patch of CD1 or Balb/c mouse leg was shaved of hair and 10 μg 4Ub-FL plasmid in 20 μL of PBS was injected into the quadriceps femoralis muscle followed immediately by injection of the 2 Needle Array to 5 mm depth encompassing the injection site and square wave electroporation (ElectroSquarePorator 833, BTX-2 Needle array 5 mm gap, Harvard apparatus) delivered as eight pulses at 106V for 20 ms with 200 ms intervals. […] Equally sized areas were analyzed using Living Image 2.20 software. […]

SSC25 = assay: MTT cytotoxicity assay, SSC25; format: cell-based; conditions: Table 3, 48 hr, Head & Neck (HPV −ve)
Protocol: Cell lines and cytotoxicity assays: All cell lines were obtained from the American Type Culture Collection (ATCC) and cultured in the specified medium supplemented with 10% fetal bovine serum, 100 IU/mL penicillin, and 100 μg/mL streptomycin at 37° C. in a humidified 5% CO2/95% air incubator. […] To assess drug cytotoxicity, cells were seeded at 2,500 cells/well (10,000 cells/well for MM lines) in 100 μL medium in 96-well plate and after 24 treated with compounds for 72 h, incubated according to the manufacturer's protocol with the Thiazolyl Blue Tetrazolium Bromide (Sigma, M2128) and A570 measured using a Benchmark Plus microplate spectrophotometer (BIO-RAD). IC50 data was analyzed by Graphpad Prism software.

C33A = assay: MTT cytotoxicity assay, C33A; format: cell-based; conditions: Homo sapiens, C-33-A, Table 3, 48 hr, Cervical (HPV −ve)
Protocol: The cytotoxic efficacy of selected compounds was assessed against multiple myeloma (MM) cell lines, as this is a validated clinical target for the licensed proteasome inhibitors.
(§1) Cell lines and cytotoxicity assays: All cell lines were obtained from the American Type Culture Collection (ATCC) and cultured in the specified medium supplemented with 10% fetal bovine serum, 100 IU/mL penicillin, and 100 μg/mL streptomycin at 37° C. in a humidified 5% CO2/95% air incubator. […] To assess drug cytotoxicity, cells were seeded at 2,500 cells/well (10,000 cells/well for MM lines) in 100 μL medium in 96-well plate and after 24 treated with compounds for 72 h, incubated according to the manufacturer's protocol with the Thiazolyl Blue Tetrazolium Bromide (Sigma, M2128) and A570 measured using a Benchmark Plus microplate spectrophotometer (BIO-RAD). IC50 data was analyzed by Graphpad Prism software. In the chirality studies the cells were treated with compounds for 48 h, and the cells were incubated and measured via the preceeding protocols.

[2] = Initial toxicity testing in female Balb/c mice; format: in vivo
Protocol: Initial toxicity testing was performed in female Balb/c mice with RA375. Groups of mice (n=3) were injected intra peritoneally (i.p.) with a single dose of RA375 (5, 10, 20, 40, 60, 100 mg/Kg in 25% β-hydroxypropyl cyclodextrin) and endpoints evaluated included clinical observation and body weight for one week.

[3] = PEG400: Cremophor: Tween40 vs b-HPCD
in vivo = format: in vivo, C57BL/6 mice; conditions: female, C57BL/6, mouse, in vivo; suggested from toxicities at higher dose; read-out: MTD in tumor-bearing animals
Protocol: To assess therapeutic efficacy the ID8-VegfDefb29 cell line was utilized in a syngeneic mouse model of ovarian cancer expressing luciferase (62). ID8 was first derived from spontaneous malignant transformation of C57BL/6 mouse ovarian surface epithelial cells in vitro (69). ID8-Vegf Defb29 cells represent a more aggressive variant of ovarian cancer in which VEGF provides vascular growth which is augmented by the presence of DEFB29 (62). C57BL/6 mice were injected i.p. with ID8-VegfDefb29 cells stably expressing firefly luciferase (0.5×10^6 cells) in PBS (100 μL). After 72 hrs, mice were imaged for their basal luminescence levels using an IVIS200 imager. Mice with visible luminescence were randomized into equal groups including vehicle (n=8), RA414 (3 mg/Kg, n=8), RA414 (10 mg/Kg, n=8) and treated every three days for up to 3 weeks. Mice were imaged every week to measure bioluminescence expressed by tumor after administration of luciferin. […] On day 24 two mice were sacrificed after collection of ascites, and the remainder required euthanasia on day 31 (FIGS. 17A and 17B). Administration of RA414 at 10 mg/kg (3 doses delivered every three days) regressed the tumor completely in 50% of the mice with less than 10% weight loss. […] This is consistent with proteasome inhibition within the ascites cells by the […] RA414 treatment regimen.
Tumor Studies: Female C57BL6 or Nude mice were inoculated with 10^6 ES2-Luciferase cells i.p. in 100 uL PBC, or ID8-VegfDefb29 syngeneic mouse model of ovarian cancer expressing luciferase (62) i.p. in 100 μL PBS. At day 3, mice were imaged for basal level luminescence activity with a Xenogen IVIS 200 after injection i.p. with luciferin (0.3 mg in 100 water). Mice were randomized into two groups (n=8) and treated i.p. with compounds or vehicle (25% (w/v) β-Hydroxypropylcyclodextrin in water), and imaged again on days 7 and 14. RA375 was administered i.p. at 10 mg/Kg.

DU145 = assay: MTT cytotoxicity assay, DU145; conditions: Homo sapiens, DU-145, read-out: cytotoxicity IC50 DU145
Protocol: as §1

With `C[C@H]1/C(=C\c2ccc([N+](=O)[O-])cc2)C(=O)/C(=C/c2ccc([N+](=O)[O-])cc2)CN1C(=O)[C@@H](N)Cc1ccccc1` the IC50 (SSC90) was 125 nM.

For `CC(C)C[C@H](NC(=O)[C@H](Cc1ccccc1)NC(=O)c1cnccn1)B(O)O` [Bortezomib, bortezomib, reference compound], the “cellular total GSH levels” value (intracellular GSH) was “profoundly reduced cellular GSH levels”.

In the case of `N[C@@H](Cc1ccccc1)C(=O)N1C/C(=C\c2ccc([N+](=O)[O-])cc2)C(=O)/C(=C/c2ccc([N+](=O)[O-])cc2)C1` [RA183, reference compound], the IC50 (NF-κB) is listed as 100 nM.

`N[C@@H](Cc1ccccc1)C(=O)N1C/C(=C\c2ccc(Cl)c(Cl)c2)C(=O)/C(=C/c2ccc(Cl)c(Cl)c2)C1` [RA190, reference compound] showed an IC50 (C2KmFvB1) of 436 nM and an IC50 (SKOV3 cells) of 75 nM.

With `O=C(CCl)N[C@@H](Cc1ccccc1)C(=O)N1C/C(=C\c2ccc([N+](=O)[O-])cc2)C(=O)/C(=C/c2ccc([N+](=O)[O-])cc2)C1` [RA375] the “duration of proteasome inhibition in muscle” value [1] was > 72 h, the IC50 (SSC25) was 189 nM and the IC50 (C33A) was 167 nM. For the same compound, the “toxicity after repeated dosing” value ([2]; 40 mg/Kg on alternate days for two weeks) was “no observable toxicities or weight loss” and the “adverse effects after single dose” value ([2]; female Balb/c, single i.p. dose 5-100 mg/Kg, one week observation) was “No adverse effects were noted”.

In the case of `CC1/C(=C\c2ccc([N+](=O)[O-])cc2)C(=O)/C(=C/c2ccc([N+](=O)[O-])cc2)CN1C(=O)[C@H](Cc1ccccc1)NC(=O)CCl` (stereo partly shown) [RA414], the “solubility in formulation vehicles” value [3] is reported as “soluble in the PEG system only”, the MTD (in vivo) is reported as 3 mg/kg and the IC50 (DU145) is reported as 17 nM.
